# Tests used:
# [1] = tested on: chTCR gene expression; assay: Regulation of surface chTCR expression in cloned pLAV12 transfectants (1E5/1F5 and 2E11), FACS; format: cell-based, human
# Description: (§1) The Jurkat T cell line (clone E6-l) was maintained in RPMI 1640 supplemented with 10% foetal calf serum (FCS), 2 mM L-glutamine, 100 U/ml penicillin, 100 μg/ml streptomycin and 25 mM HEPES buffer (all from GIBCO-BRL, Gaithersburg, Md.), referred to as complete medium (CM). To generate stable cell lines Jurkat cells were transfected with linearized plasmid DNA (10 μg) by electroporation, at […] and 960 μF, as described previously (13). Transfectants were selected in CM supplemented with 0.4 mg/ml of hygromycin B (Calbiochem, San Diego, Calif.). Stable cell lines were established after 3-4 weeks and analyzed by FACS for expression of the chTCR. To select a population of chTCR ζ expressing cells, stable Jurkat cells transfected with the linearized pLAV12 or pCEP4.aNIP.TCR ζ derived plasmid fragments were FACS sorted (see below). The resultant populations were cloned twice by limiting dilution and screened for protein expression by flow cytometry.
# (§2) Expression of cell surface proteins was performed by standard direct immunofluorescence as described (14) using saturating amounts of FITC-conjugated antibodies. Dead cells were excluded from analysis using a combination of propidium iodide and forward light scatter. Appropriate FITC isotype-matched irrelevant Abs were used in all experiments. The samples were analysed with a FACScan® (Becton Dickinson, Mountain View, Calif.). A minimum of 20,000 cells was analysed for each sample. Subsequent re-analysis of data was performed using the CELLQuest software (version 1.2) (Becton Dickinson). Additionally, cells stained with FITC-conjugated goat antisera to mouse λ light chain were sorted under sterile conditions on a cell sorter (FACScalibur, Becton Dickinson).
# The selected population of pLAV12 transfectants (JLAV12S) was then cloned by limiting dilution and two subclones expressing the chTCR at low (2E11) and intermediate (IF5) levels (FIG. 3) were selected for further study.
# (§3) A dose-response curve of gene repression was determined using different concentrations of Tet or Dox. After 48 hours of treatment, the cells were harvested and the expression of the chTCR was studied by FACS analysis.
# (§4) Stably transfected uncloned (JLAV12S, left hand column) and cloned (1F5, middle column; and 2E11, right hand column) Jurkat cell populations were cultured for 48 hours in the presence of different concentrations (0 ng/ml top row, 0.1 ng/ml second row, 1 ng/ml third row, and 10 ng/ml bottom row) of Tet (broken line) or Dox (solid line) and the surface expression of scFv-TCR ζ molecules was examined. Negative controls (FITC-conjugated goat antisera to mouse IgG) are overlaid (filled curve). The fluorescence channel number is plotted along the x axis, and the y axis represents the relative cell number.
# [2] = tested on: chTCR gene expression; assay: Regulation of surface chTCR expression by tetracyclines in JLAV12S (pLAV12-transfected Jurkat) cells, FACS; format: cell-based, human; conditions: for surface chTCRs down-regulated: 1 μg/ml; for surface chTCRs down-regulated / concentration for maximal repression: 48 hours
# Description: as §1, §2
# To study the time-course of inactivation of gene expression, JLAV12S cells were analysed at different times after addition of the antibiotics at 1 μg/ml (FIG. 2B).
# as §3, §4
# [3] = tested on: JN3S cells; assay: IL-2 production of JN3S cells stimulated with iNIP10-BSA; format: cell-based, human; conditions: doxycycline at a concentration of less than 1 μg/ml
# Description: (§5) Subsequently the cells were washed, counted and stimulated (10^5/well) in triplicate with plastic-immobilised NIP10-BSA conjugates (iNIP10-BSA) or plastic immobilised anti-CD3E mAb (ianti-CD3) in fresh CM alone or in the presence of the drugs (12). The plates were incubated at 37° C. in 5% CO2. After 20 hours supernatants were harvested and assayed for IL-2 activity using an ELISA kit (Genzyme Diagnostics, Cambridge, Mass.).
# The inventors next determined whether tetracycline-mediated suppression of the chTCR could induce a reversible state of antigen unresponsiveness in the transfected Jurkat cells. JLAV12S and JN3S cells were preincubated for 48 hours in increasing concentrations of Dox and Tet and then stimulated with immobilized NIP-BSA, following which their IL-2 production was measured.
# FIGS. 5A and 5B are bar charts showing IL-2 production (in pg/ml) by transfected JLAV12S (5A) or JN3S (5B) cells stimulated with iNIP10-BSA in the absence or presence of Tet or Dox. Cells were preincubated for a 48 hours period in the absence or presence of the drugs (at the indicated concentration in ng/ml), washed and stimulated (10^5/well) with plastic immobilised NIP10-BSA conjugates (50 μg/ml) in fresh CM alone (solid bar) or in the presence of Tet (shaded bars) or Dox (open bars) at the indicated concentrations. One of two similar experiments is shown.
# [4] = tested on: Jurkat cells; assay: Anti-CD3ε induced IL-2 secretion of Jurkat cells (IL-2 release assay); format: cell-based; conditions: Homo sapiens, 1 μg/ml, not shown
# Description: as §5
# [5] = tested on: JLAV12S and JN3S cells; conditions: 1 μg/ml, 48 hours; data not shown
Compound,level of chTCR as % of its maximal expression ([1]; 1E5 clone),level of chTCR as % of its maximal expression ([1]; 2E11 clone),surface chTCRs down-regulated ([2]; JLAV12S cells),concentration for maximal repression ([2]; all the analysed cell lines),concentration of maximum repression ([2]; in our system),effect on IL-2 production upon stimulation with iNIP10-BSA conjugates [3],"concentration at which expression of chTCRs was maximally repressed ([1]; clonal populations 1E5 and 2E11, 48 hours)",concentration for maximal repression ([2]; JLAV12S cells),inhibition at 1 µg/mL [4],changes in cell viability [5]
CN(C)[C@@H]1C(O)=C(C(N)=O)C(=O)[C@@]2(O)C(O)=C3C(=O)c4c(O)cccc4[C@@](C)(O)[C@H]3C[C@@H]12 [tetracycline],about 10%,~20%,90%,greater than or equal to 10 ng/ml,10 ng/mL,no inhibitory effect,,,,
C[C@H]1c2cccc(O)c2C(=O)C2=C(O)[C@]3(O)C(=O)C(C(N)=O)=C(O)[C@@H](N(C)C)[C@@H]3[C@@H](O)[C@@H]21 [doxycycline],about 10%,~20%,90%,,,no inhibitory effect,100 pg/mL,greater than or equal to 1 ng/ml,25%,No changes

# Reference: patent US20070179110A1, “EXPRESSION OF IMMUNOGENIC SUBSTANCES” (Mayo Foundation for Medical Education and Research, priority 1997, published 2007)
